Source: patent publication US20100160332A1, “a2-Adrenoceptor Ligands” (The Provost, Fellows and Scholars of the College of the …, priority 2008, published 2010)
Where two headings read alike, the source gives them in different places.

Assays:
α2-ARs [1] = details: J. Med. Chem. 2007 and 2008 studies; cited from earlier work
α2-ARs [2] = target: T1, α2-ARs (Homo sapiens, UniProt P08913); test: [35S]GTPγS binding assay (agonist stimulation) in human brain cortical membranes; type: biochemical; details: for stimulation of [35S]GTPγS binding (agonist dose-response plot): compound alone
Text: The α2-ARs are G-protein coupled receptors (GPCRs), and as such, when the endogenous ligand binds to the receptor, a change in the conformation of the G-proteins occurs leading to the exchange of GDP by GTP on the α-subunit, promoting their dissociation into α-GTP and βγ subunits, and resulting in transmembrane signalling. A direct evaluation of this G-protein activity can be made by determining the guanine nucleotide exchange using radiolabelled GTP analogues. The [^35S]GTPγS binding assay constitutes a functional measure of the interaction of the receptor and the G-protein and is a useful tool to distinguish between agonists (increasing the nucleotide binding), inverse agonists (decreasing the nucleotide binding), and neutral antagonists (not affecting the nucleotide binding) of GPCRs.
(§1) Preparation of membranes. Neural membranes (P2 fractions) were prepared from the PFC of human brains obtained at autopsy in the Instituto Vasco de Medicine Legal, Bilbao, Spain. Postmortem human brain samples of each subject (˜1 g) were homogenized using a Teflon-glass grinder (10 up-and-down strokes at 1500 rpm) in 30 volumes of homogenization buffer (1 mM MgCl2, and 5 mM Tris-HCl, pH 7.4) supplemented with 0.25 M sucrose. The crude homogenate was centrifuged for 5 min at 1000×g (4° C.) and the supernatant was centrifuged again for 10 min at 40000×g (4° C.). The resultant pellet was washed twice in 20 volumes of homogenization buffer and recentrifuged in similar conditions. Aliquots of 1 mg protein were stored at −70° C. until assay.
[^35S]GTPγS binding assays. The incubation buffer for measuring [^35S]GTPγS binding to brain membranes contained, in a total volume of 500 μL, 1 mM EGTA, 3 mM MgCl2, 100 mM NaCl, […], 50 mM Tris-HCl at pH 7.4 and 0.5 nM [^35S]GTPγS. Proteins aliquots were thawed and re-suspended in the same buffer. The incubation was started by addition of the membrane suspension (40 μg of membrane proteins) to the previous mixture and was performed at 30° C. for 120 min with shaking. In order to evaluate the influence of the compounds on [^35S]GTPγS binding, 8 concentrations (10^−10 to 10^−3M) of the different compounds were added to the assay. Incubations were terminated by adding 3 mL of ice-cold re-suspension buffer followed by rapid filtration through Whatman GF/C filters pre-soaked in the same buffer. The filters were rinsed twice with 3 mL of ice-cold re-suspension buffer, transferred to vials containing 5 mL. of OptiPhase HiSafe II cocktail (Wallac, UK) and the radioactivity trapped was determined by liquid scintillation spectrometry (Packard 2200CA). […] Non-specific binding of the radioligand was defined as the remaining [^35S]GTPγS binding in the presence of 10 μM unlabelled GTPγS.

α2-ARs [3] = target: T1, α2-ARs; test: UK14304 stimulation of [35S]GTPγS binding in absence or presence of compounds (antagonism test); type: biochemical; details: human brain PFC, in vitro, 10^−5 M
Experimental: as §1
[^35S]GTPγS binding assays. The incubation buffer for measuring [^35S]GTPγS binding to brain membranes contained, in a total volume of 500 μL, 1 mM EGTA, 3 mM MgCl2, 100 mM NaCl, […], 50 mM Tris-HCl at pH 7.4 and 0.5 nM [^35S]GTPγS. Proteins aliquots were thawed and re-suspended in the same buffer. […] The filters were rinsed twice with 3 mL of ice-cold re-suspension buffer, transferred to vials containing 5 mL. of OptiPhase HiSafe II cocktail (Wallac, UK) and the radioactivity trapped was determined by liquid scintillation spectrometry (Packard 2200CA). […]

[4] = tested on: extracellular NA levels in the PFC; test: In-vivo microdialysis, extracellular NA in the PFC of freely moving rats; design: species or system rat; details: for Emax, extracellular NA levels: local administration by reverse dialysis 1-100 μM in PFC
Text: The antagonistic properties of derivative 8b in-vitro, were substantiated by testing its effect on noradrenergic transmission in vivo using microdialysis experiments. This technique is a widely accepted method for sampling the extracellular fluid of the brain, allowing the study of different neurotransmitters in the extracellular area where the probe is implanted. This technique has been used to investigate the effect of different compounds on NA concentrations in the PFC, an area widely implicated in depression. The increase of NA concentration in the PFC of freely moving rats after drug administration is accepted as a good predictor for antidepressant activity. In this context, many antidepressants, including the α2-AR antagonist Mirtazapine, are able to increase dialysate levels of NA in the PFC.
Compounds 8b and RX821002 were dissolved in aCSF and perfussed via reverse dialysis at the time indicated by the arrows (every 70 minutes). Data correspond to the mean±standard error mean values from 3 to 5 animals for each group, and are expressed as percentages of the corresponding basal values.
Control rats were administered with the vehicle (saline). Intraperitoneal administration of compound 8b (10 mg/kg) increased NA extracellular concentration by 161±30% in the PFC. Data are given as mean±standard error mean values from 4-5 separate animals for each group and are expressed as percentages of the corresponding basal values. The arrow represents the time of administration of the compound or vehicle.
Microdialysis experiments Male Sprague-Dawley rats (250-300 g) were implanted with a probe in a stereotaxic apparatus under chloral hydrate anaesthesia (400 mg/kg i.p.). The probe was located in the prefrontal cortex (PFC) according to the co-ordinates of the atlas of Paxinos and Watson (AP (anterior to bregma) +2.8 mm, L (lateral from the mid-sagittal suture) +1 mm, DV (ventral from the dura surface) −5 mm). Experiments were performed 20-24 h after the probe implantation and aCSF (148 mM NaCl, 2.7 mM KCl, 1.2 mM CaCl2 and 0.85 mM MgCl2; pH 7.4) was pumped at a flow rate of 1 μl/min (CMA/Microdialysis infusion pump). […] Samples were collected every 35 min and NA concentrations analyzed by HPLC apparatus with amperometric detection (Hewlett-Packard model 1049A) at an oxidizing potential of +650 mV. […] Samples (injection volume 30 μl) were injected and NA analyzed in a run time of 10 min. […] All measures of extracellular NA concentrations are expressed as percentage of the baseline value±s.e.mean. One-way analysis of variance (ANOVA) for control group or two-way ANOVA between control and each treated group was assessed for statistical analysis. […]

Tail suspension test = type: in vivo, rat
Text: FIG. 4 illustrates the rat tail suspension test for a number of compounds. The tail suspension test has become one of the most widely used models for assessing antidepressant-like activity in mice. The test is based on the fact that animals subjected to the short-term, inescapable stress of being suspended by their tail, will develop an immobile posture. Antidepressant medications reverse the immobility and promote the occurrence of escape-related behaviour.

T1 sequence (P08913 whole entry): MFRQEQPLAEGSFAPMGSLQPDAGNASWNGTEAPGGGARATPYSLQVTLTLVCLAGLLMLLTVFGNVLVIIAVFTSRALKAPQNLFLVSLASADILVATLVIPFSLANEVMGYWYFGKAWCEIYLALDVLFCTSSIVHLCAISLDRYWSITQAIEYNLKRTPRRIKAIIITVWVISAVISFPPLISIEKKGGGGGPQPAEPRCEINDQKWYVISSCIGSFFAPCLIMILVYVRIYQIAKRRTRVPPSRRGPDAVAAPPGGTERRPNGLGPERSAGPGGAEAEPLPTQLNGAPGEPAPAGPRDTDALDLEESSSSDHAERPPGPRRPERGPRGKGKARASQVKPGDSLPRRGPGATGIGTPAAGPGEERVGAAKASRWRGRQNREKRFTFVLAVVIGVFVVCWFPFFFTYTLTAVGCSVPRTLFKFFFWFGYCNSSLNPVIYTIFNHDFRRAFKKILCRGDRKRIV

stimulation of [35S]GTPγS binding (agonist dose-response plot) (α2-ARs [2]) | Emax (α2-ARs [2]; read-out: Emax (%)) [%] | Compound | Emax (α2-ARs [2]) [%] | further results
– | – | N=C(N)Nc1ccc2c(c1)CCCC2 [6′] | – | behaviour at α2-ARs (α2-ARs [1]): antagonist behaviour
stimulated binding of [^35S]GTPγS | 89 | CCN(CC)c1ccc(NC(=N)N)cc1 [Compound 17, reference compound] | – | –
stimulated binding of [^35S]GTPγS | 87 | CNc1ccc(NC(=N)N)cc1 [Compound 7b, N-(4-methylamino-phenyl)-guanidine] | – | –
– | – | c1cc2c(cc1NC1=NCCN1)OCO2 [5′] | – | behaviour at α2-ARs (α2-ARs [1]): antagonist behaviour
did not stimulate binding of [^35S]GTPγS | – | CCNc1ccc(NC(=N)N)cc1 [Compound 8b, N-(4-ethylamino-phenyl)-guanidine] | – | nature at α2-ARs from shift of UK14304 EC50 (α2-ARs [3]): behaves as an antagonist; ability to cross the blood brain barrier (BBB) ([4]; inferred from NA increase after intraperitoneal administration): ability of the compound to cross the blood brain barrier; increase of NA extracellular concentration ([4]; intraperitoneal 10 mg/kg, PFC, percentages of basal values): 161±30%; Emax, extracellular NA levels ([4]; percentages of basal values): 304±54%; performance against fluoxetine (Tail suspension test; 8b 10 mg/kg vs fluoxetine 40 mg/kg): vastly outperforms; time in immobile posture (Tail suspension test; FIG. 4, against all other compounds tested): shortest length of time
stimulated binding of [^35S]GTPγS | 92 | CCN(C)c1ccc(NC(=N)N)cc1 [Compound 9b, N-[4-(ethyl-methyl-amino)-phenyl]-guanidine] | – | –
– | – | COC1(C2=NCCN2)COc2ccccc2O1 (stereo not shown) [RX821002, 2-methoxy-idazoxan, reference compound] | – | Emax, extracellular NA levels ([4]; percentages of basal values): 290±35%

Compound | stimulation of [35S]GTPγS binding (agonist dose-response plot) (α2-ARs [2]) | Emax (α2-ARs [2]; read-out: Emax (%)) [%] | Emax (α2-ARs [2]) [%] | further results
CNc1ccc(NC2=NCCN2)cc1 [Compound 4b, N-imidazolidin-2-ylidene-N′-methyl-benzene-1,4-diamine] | stimulated binding of [^35S]GTPγS | – | 98 | –
CCNc1ccc(NC2=NCCN2)cc1 [Compound 5b, N-ethyl-N′-imidazolidin-2-ylidene-benzene-1,4-diamine] | stimulated binding of [^35S]GTPγS | – | 95 | –
CCN(C)c1ccc(NC2=NCCN2)cc1 [Compound 6b, N-Ethyl-N′-imidazolidin-2-ylidene-N-methyl-benzene-1,4-diamine] | stimulated binding of [^35S]GTPγS | – | 103 | –
